Tests used:
[1] = test system: calvaria (PTH enhanced bone); assay: Inhibitory effect on bone absorption (calcium liberation from PTH enhanced cultured calvaria); type: cell-based, newborn dd mouse; settings: mouse calvaria culture, PTH 1 x 10^-8M, 96 hours, calcium in the culture; test compound 3 x 10^-6M, 1 x 10^-5M, 3 x 10^-5M
Description: Test Example 1: Inhibitory effect on bone absorption
The calvaria was excised from a newborn dd mouse (5 to 6 days old) under sterile conditions. The calvaria was washed with a modified Dulbecco phosphate buffer physiological saline solution containing neither calcium nor magnesium (a product of Gibco Oriental), and divided into two parts along the center suture. A half of the calvaria was cultivated in a modified Dulbecco Eagle medium (1.5 ml) (a product of Gibco Oriental) containing 2.5% fetal calf serum and 15% equine serum which had been inactivated by heating at 56°C for 20 minutes. The test compound was dissolved in dimethyl sulfoxide and 10 µl of the resulting solution was added to the culture medium to give the final concentrations of 3 x 10^-6M, 1 x 10^-5M, and 3 x 10^-5M. PTH (parathyroid hormone) was dissolved in a 0.15 M saline solution (pH 3) and 3 µl of the resulting solution was added to the culture medium to give the final concentration of 1 x 10^-8M. The culturing was carried out under the condition of 95% air and 5% carbon dioxide and at a temperature of 37°C for 96 hours. At 48 hours after the start of the culturing, the culture medium was renewed and the test compound and PTH treated as defined above were added thereto. For examining the effect of the test compound on calcium liberation (bone absorption) from the PTH enhanced bone, a control group, a group using PTH (1 x 10^-8M), and a group using both the test compound (3 x 10^-6M, 1 x 10^-5M, 3 x 10^-5M) and PTH were prepared. The amount of the bone absorption was determined by measuring the amount of calcium accumulated in the culture as collected after 96 hours of culturing. The total calcium concentration in the culture was measured with Calcium C Test Wako. The inhibition rate was calculated using the following equation and the result was shown in terms of 50% inhibitory concentration (IC50). Inhibition of bone absorption from PTH enhanced bone Inhibition rate (%) = [(CP - CD )/(CP - C0 )] x 100 [formula] • C0 : The total calcium concentration in the culture containing neither the test compound nor PTH. • CP : The total calcium concentration in the culture treated with only PTH. • CD : The total calcium concentration in the culture treated with both the test compound and PTH.

ovariectomized rats = assay: Inhibitory effect on the increase of urinary hydroxyproline excretion by ovariectomy; type: in vivo, female SD strain rats; settings: 10 mg/kg orally once a day for two weeks, hydroxyproline/creatinine molar ratio in 24 hour urine
Description: The inhibitory effect of the compounds of the present application on bone resorption was also determined by their inhibitory effect on the excretion of urinary hydroxyproline which is elevated by ovariectomy of the animals tested, according to the report of Kalu et al. [Bone and Mineral., 14, 175 (1991)].
Test Example 2: Inhibitory effect on the increase of urinary hydroxyproline excretion by ovariectomy
12-weeks-old female SD strain rats (Japan Clea Co., Ltd.) were acclimated for 1 week during which they were given tap water and a standard diet (F2; Funabashi Farmas) ad libitum. The experiment was carried out using the rats weighing 270-310 g. After the animals were subjected to sham operation or bilateral ovariectomy, they were allowed free access to water passed through ion exchange resin instead of tap water, and were housed in individual cages. The test compound (10 mg/kg) was suspended in 0.3% Tween, and the obtained suspension was orally administered to the ovariectomized rats once a day for two weeks starting from the day following ovariectomy (0.5 ml/100 g body weight). 0.3% Tween was similarly administered to sham-operated rats and ovariectomized control rats. After the final administration, the rats were placed in individual metabolic cages and fasted during 24 hours, and urine was collected. The volume of the collected urine was measured and the urine was centrifuged at 3,000 rpm for 15 min at 4°C. The concentration of hydroxyproline in the supernatant was measured by the method of Ikeda et al. [Ann. Rep. Tokyo Metr. Res. Lab. P. H., 36, 277-282 (1985)] and the concentration of creatinine in the supernatant was measured with creatinine test WAKO (Wako Pure Chem.) The amount of urinary hydroxyproline excretion was expressed by the molar ratio of the amount of hydroxyproline to the amount of creatinine. The rate of inhibition on increase of the amount of urinary hydroxyproline excretion in ovariectomized rats treated with the test compound compared to that of the control group was calculated using the following equation. […]

Row | SMILES | IC50 [1] | Inhibition rate of increase of the amount of urinary hydroxyproline excretion (ovariectomized rats)
1 | O=S(=O)(c1[nH]c2ccccc2c1C(c1ccc(O)cc1)c1ccc(O)cc1)N1CCN(c2ccccc2Cl)CC1 [Compound 14, 3-[Bis(4-hydroxyphenyl)methyl]-2-[4-(2-chlorophenyl)piperazinylsulfonyl]indole] | 14.1 µM | –
2 | O=S(=O)(c1c(C(c2ccc(O)cc2)c2ccc(O)cc2)c2ccccc2n1CCN1CCOCC1)N1CCN(c2ccccc2Cl)CC1 [Compound 16, 3-[Bis(4-hydroxyphenyl)methyl]-2-[4-(2-chlorophenyl)piperazinylsulfonyl]-1-(2-morpholinoethyl)indole] | – | 32%
3 | CN(C)CCn1c(S(=O)(=O)N2CCCCC2)c(C(c2ccc(O)cc2)c2ccc(O)cc2)c2ccccc21 [Compound 17, 3-[Bis(4-hydroxyphenyl)methyl]-1-(2-dimethylaminoethyl)-2-(piperidinosulfonyl)indole] | 13.7 µM | –
4 | CCN(CC)S(=O)(=O)c1c(C(c2ccc(O)cc2)c2ccc(O)cc2)c2ccccc2n1CCN(C)C [Compound 18, N,N-Diethyl-3-[bis(4-hydroxyphenyl)methyl]-1-(2-dimethylaminoethyl)indole-2-sulfonamide] | 13.3 µM | 22%
5 | CN(C)CCn1c(S(=O)(=O)N2CCCCC2)c(C(c2ccccc2)c2ccccc2)c2ccccc21 [Compound 24, 1-(2-Dimethylaminoethyl)-3-(diphenylmethyl)-2-(piperidinosulfonyl)indole] | 13.7 µM | 100%
